Data published in US20230312646A1, “ANTIBACTERIAL PEPTIDES” (priority 2020, published 2023).
Where two headings read alike, the source gives them in different places. Numbered stars: 1 amine (or outer) side, 2 acyl side, 3 side chain; on linkers, the order of the positions; unused ones are H or OH. Square brackets hold non-standard residues; d marks the D form. Peptide text beside a SMILES is read from it. * marks the point of attachment. ξ: configuration not given here. NEtAsp = CCN([C@@H](CC(=O)[*:3])C(=O)[*:2])[*:1]; ACHC(1S,2S) = O=C([C@H]1CCCC[C@@H]1N[*:1])[*:2]; Acryloyl(3-(3-pyridyl),E) = O=C(/C=C/c1cccnc1)*; Phe(3,4-Cl2) = N[C@@H](Cc1ccc(Cl)c(Cl)c1)C(=O)O; Oic = O=C(O)[C@@H]1C[C@@H]2CCCC[C@@H]2N1; Cinnamoyl(4-F) = O=C(/C=C/c1ccc(F)cc1)*; Caffeoyl = O=C(/C=C/c1ccc(O)c(O)c1)*; NMeCha = CN[C@@H](CC1CCCCC1)C(=O)O; X7 = C[N+](C)=C(NCC(=O)*)N1CCOCC1; X4 = O=C([O-])[C@H](Cc1ccccc1)N*; NFurfurylGly = O=C(O)CNCc1ccco1; NMeQ = CN[C@@H](CCC(N)=O)C(=O)O; Cha = N[C@@H](CC1CCCCC1)C(=O)O; NMeD = CN[C@@H](CC(=O)O)C(=O)O; X3 = CN(C)C(NCC(=O)*)=[N+](C)C; NHPhenethyl = c1ccc(CCN*)cc1; ξOic = O=C(O)C1CC2CCCCC2N1; X8 = NC[C@H](Cc1ccccc1)N*; X6 = O=C(/C=C/c1ccccc1)*

Target: T1, Escherichia coli SC (^EcSC) (Escherichia coli, UniProt P0A988)
T1 construct: His tag (inferred from the pET15b vector and Ni-NTA purification) (N); made in house; host or cells: E. coli
Assay: biochemical
Assay type: binding
Conditions: for ΔG (kcal/mol) / Kd: ITC at 298.15 K (25° C.); for Kd: Kd (nM); for ΔG (kcal mol^-1): ITC at 25° C.
Description: The procedure has been described previously (Wolff, P.; Oliéric, V.; Briand, J. P.; Chaloin, O.; Dejaegere, A.; Dumas, P.; Ennifar, E.; Guichard, G.; Wagner, J.; Burnouf, D. Y., Structure-Based Design of Short Peptide Ligands Binding onto the E. coli Processivity Ring. J. Med. Chem. 2011, 54 (13), 4627-4637). Briefly, E.coli cells were transformed with plasmids pET15b containing the dnaN gene from E. coli and were grown in LB at 37° C. to OD 0.5, then induced by IPTG (0.1 mM) at 28° C. overnight. dnaN proteins fractions were first enriched on a Ni-NTA column, eluted with a histidine step (300 mM) and further purified on a Source Q column in buffer containing 20 mM Tris HCI pH 7.5, 0.5 mM EDTA and 10% (v/v) glycerol, using a gradient from 0 to 0.5 M NaCl. After a final ultracentrifugation (45 K, 1 h, 20° C.), soluble proteins were concentrated on a Centricon 30 K (Millipore) in the same buffer and stored at 4° C. in 2 M ammonium sulfate. Buffer exchange was performed on Centrikon 10 K at 4° C. before use and protein quality was assessed by DLS.
ITC experiments were performed using an iTC200 or a PEAQ-ITC instrument (Microcal Malvern Panalytical). Peptides (300 or 600 µM) were titrated at 25° C. by sequential injections (usually 2 µl each) into an SC solution (30 or 60 µM). Data were corrected for heat of injection by subtracting the signal of the titration of peptides into proteiN-free buffer solution (Hepes 10 mM pH 7.4, NaCl 0.15 M, EDTA 3 mM). Each titration was performed at least twice. Analyses of experimental data were performed following a classical treatment with the AFFINImeter software (https://www.affinimeter.com; S4S, Santiago de Compostela, Spain). In addition, kinetic information was obtained in some cases with kinITC as implemented in the software AFFINImeter.
All newly synthesized peptides were tested for their interaction with ^EcSC by ITC at 25° C. As a general rule, all thermodynamic profiles reveal an exothermic interaction, and a non-favorable entropic component. The resulting negative Gibb’s free energies characterize a spontaneous interaction. The analysis of raw data by the Affinimeter® software also gave access to kinetics rate constant of the interaction.

T1 sequence (P0A988 whole entry): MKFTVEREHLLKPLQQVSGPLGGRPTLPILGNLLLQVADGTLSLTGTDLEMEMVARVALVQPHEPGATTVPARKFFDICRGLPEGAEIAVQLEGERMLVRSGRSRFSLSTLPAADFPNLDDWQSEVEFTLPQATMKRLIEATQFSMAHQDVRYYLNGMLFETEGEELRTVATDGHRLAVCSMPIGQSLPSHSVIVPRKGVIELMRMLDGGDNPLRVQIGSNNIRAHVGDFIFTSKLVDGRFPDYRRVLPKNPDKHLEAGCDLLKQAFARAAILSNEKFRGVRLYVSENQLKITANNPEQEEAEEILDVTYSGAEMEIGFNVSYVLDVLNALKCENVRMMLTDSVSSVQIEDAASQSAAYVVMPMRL

| Compound | ΔG (kcal/mol) | Kd [nM] | kon (read-out: kon (M^-1.s^-1)) [M⁻¹ s⁻¹] | other results |
| --- | --- | --- | --- | --- |
| CC(=O)N[C@@H](CCC(N)=O)C(=O)N[C@@H](CC1CCCCC1)C(=O)N[C@@H](CC(=O)O)C(=O)N[C@@H](CC(C)C)C(=O)NCCc1ccccc1 [P23] (Ac-Q[Cha]DL-NHPhenethyl) | -8.2 (± 0.05) kcal/mol | 922 | 19000 | – |
| CC(=O)N[C@@H](CCC(N)=O)C(=O)N[C@@H](CC1CCCCC1)C(=O)N(C)[C@@H](CC(=O)O)C(=O)N[C@@H](CC(C)C)C(=O)N[C@@H](Cc1ccccc1)C(=O)O [P4] (Ac-Q[Cha][NMeD]LF-OH) | -9.5 (± 0.1) kcal/mol | 114 | 210000 | koff, fold higher than for peptide 1 (P1) (compared to P1): 2.5 fold; kon value, fold higher than for peptide 1 (P1) (compared to P1): 5 fold |
| CC(=O)N[C@@H](CCC(N)=O)C(=O)N[C@@H](CC1CCCCC1)C(=O)N[C@@H](CC(=O)O)C(=O)N[C@@H](CC(C)C)C(=O)N1CCC[C@H]1C(=O)N[C@@H](CC(C)C)C(=O)O [P32] (Ac-Q[Cha]DLPL-OH) | -9.2 (± 0.2) kcal/mol | 182 | 57000 | fold lower Kd / affinity enhancement in comparison to peptide P27 (compared to P27): 4 fold |
| CC(C)C[C@H](NC(=O)[C@H](CC(=O)O)N(C)C(=O)[C@H](CC1CCCCC1)NC(=O)[C@H](CCC(N)=O)NC(=O)/C=C/c1cccnc1)C(=O)N1CCC[C@H]1C(=O)N[C@@H](Cc1ccccc1)C(=O)O [P46] ({Acryloyl(3-(3-pyridyl),E)}-Q[Cha][NMeD]LPF-OH) | – | 36 | – | ΔG (kcal mol^-1): -10.2 (± 0.1) kcal mol^-1; kon (read-out: kon (M^-1 s^-1)): 140000 M⁻¹ s⁻¹ |
| CC(C)C[C@H](NC(=O)[C@H](CC(=O)O)N(C)C(=O)[C@H](CC1CCCCC1)NC(=O)[C@H](CCC(N)=O)NC(=O)/C=C/c1cccnc1)C(=O)N1[C@H](C(=O)N[C@@H](Cc2ccccc2)C(=O)O)C[C@@H]2CCCC[C@@H]21 [P49] ({Acryloyl(3-(3-pyridyl),E)}-Q[Cha][NMeD]L[Oic]F-OH) | – | 118 | – | ΔG (kcal mol^-1): -9.5 (± 0.1) kcal mol^-1; kon (read-out: kon (M^-1 s^-1)): 47000 M⁻¹ s⁻¹ |
| CC(=O)N(C)[C@@H](CCC(N)=O)C(=O)N[C@@H](CC1CCCCC1)C(=O)N[C@@H](CC(=O)O)C(=O)N[C@@H](CC(C)C)C(=O)N[C@@H](Cc1ccccc1)C(=O)O [P2] (Ac-[NMeQ][Cha]DLF-OH) | -7.7 (± 0.2) kcal/mol | > 1000 | 21000 | – |
| CC(C)C[C@H](NC(=O)[C@H](CC(=O)O)NC(=O)[C@H](CC1CCCCC1)NC(=O)[C@H](CCC(N)=O)NC(=O)/C=C/c1ccc(O)c(O)c1)C(=O)N[C@@H](Cc1ccccc1)C(=O)O [P21] (Caffeoyl-Q[Cha]DLF-OH) | – | 99 | 46000 | – |
| CC(C)C[C@H](NC(=O)[C@H](CC(=O)O)NC(=O)[C@H](CC1CCCCC1)NC(=O)[C@H](CCC(N)=O)NC(=O)/C=C/c1ccccc1)C(=O)N[C@@H](Cc1ccccc1)C(=O)O [P17] (X6-Q[Cha]DLF-OH) | -9.4 (± 0.2) kcal/mol | 129 | 46000 | – |
| CC(=O)N[C@@H](CCC(N)=O)C(=O)N[C@@H](CC1CCCCC1)C(=O)N[C@@H](CC(=O)O)C(=O)N[C@@H](CC(C)C)C(=O)N[C@H](CN)Cc1ccccc1 [P25] (Ac-Q[Cha]DL-X8) | -8.27 (± 0.03) kcal/mol | 877 | 12000 | – |
| CC(=O)N[C@@H](CCCNC(=N)N)C(=O)N[C@@H](CCC(N)=O)C(=O)N[C@@H](CC1CCCCC1)C(=O)N(C)[C@@H](CC(=O)O)C(=O)N[C@@H](CC(C)C)C(=O)N[C@@H](Cc1ccc(Cl)c(Cl)c1)C(=O)O [P36] (Ac-RQ[Cha][NMeD]L[Phe(3,4-Cl2)]-OH) | – | 278 | – | kon (read-out: kon (M^-1 s^-1)): 76000 M⁻¹ s⁻¹ |
| CC(C)C[C@H](NC(=O)[C@H](CC(=O)O)NC(=O)[C@H](CC1CCCCC1)NC(=O)[C@H](CCC(N)=O)NC(=O)CNC(N(C)C)=[N+](C)C)C(=O)N[C@@H](Cc1ccccc1)C(=O)[O-] [P15] (X3-Q[Cha]DL-X4) | -8.7 (± 0.1) kcal/mol | 353 | 34000 | – |
| CC(C)C[C@H](NC(=O)[C@H](CC(=O)O)NC(=O)[C@H](CC1CCCCC1)NC(=O)[C@H](CCC(N)=O)NC(=O)CNC(N1CCOCC1)=[N+](C)C)C(=O)N[C@@H](Cc1ccccc1)C(=O)[O-] [P14] (X7-Q[Cha]DL-X4) | -9.0 (± 0.1) kcal/mol | 276 | 34000 | – |
| CC(=O)N[C@@H](CCC(N)=O)C(=O)N[C@@H](CC1CCCCC1)C(=O)N(C)[C@@H](CC(=O)O)C(=O)N[C@@H](CC(C)C)C(=O)N1CCC[C@H]1C(=O)N[C@@H](CC(C)C)C(=O)O [P42] (Ac-Q[Cha][NMeD]LPL-OH) | – | 263 | – | ΔG (kcal mol^-1): -9.0 (± 0.2) kcal mol^-1; kon (read-out: kon (M^-1 s^-1)): 100000 M⁻¹ s⁻¹ |
| CC(C)C[C@H](NC(=O)[C@@H]1CCCN1C(=O)[C@H](CC(C)C)NC(=O)[C@H](CC(=O)O)NC(=O)[C@H](CC1CCCCC1)NC(=O)[C@H](CCC(N)=O)NC(=O)/C=C/c1ccccc1)C(=O)O [P43] (X6-Q[Cha]DLPL-OH) | – | 132 | – | kon (read-out: kon (M^-1 s^-1)): 60000 M⁻¹ s⁻¹ |
| CC(C)C[C@H](NC(=O)[C@H](CC(=O)O)NC(=O)[C@H](CC1CCCCC1)NC(=O)[C@H](CCC(N)=O)NC(=O)/C=C/c1cccnc1)C(=O)N[C@@H](Cc1ccccc1)C(=O)O [P16] ({Acryloyl(3-(3-pyridyl),E)}-Q[Cha]DLF-OH) | -9.3 (± 0.2) kcal/mol | 156 | 46000 | – |
| CC(=O)N[C@@H](CCC(N)=O)C(=O)N[C@@H](CC1CCCCC1)C(=O)N[C@@H](CC(=O)O)C(=O)N[C@@H](CC(C)C)C(=O)N1C(C(=O)N[C@@H](CC(C)C)C(=O)O)CC2CCCCC21 (stereo partly drawn) [P47] (Ac-Q[Cha]DL[ξOic]L-OH) | – | – | – | kon (read-out: kon (M^-1 s^-1)): 71000 M⁻¹ s⁻¹ |
| CCN(C(=O)[C@H](CC1CCCCC1)NC(=O)[C@H](CCC(N)=O)NC(C)=O)[C@@H](CC(=O)O)C(=O)N[C@@H](CC(C)C)C(=O)N[C@@H](Cc1ccccc1)C(=O)O [P5] (Ac-Q[Cha][NEtAsp]LF-OH) | -8.57 (± 0.07) kcal/mol | 523 | 28800 | – |
| CC(=O)N[C@@H](CCC(N)=O)C(=O)N(C)[C@@H](CC1CCCCC1)C(=O)N[C@@H](CC(=O)O)C(=O)N[C@@H](CC(C)C)C(=O)N[C@@H](Cc1ccccc1)C(=O)O [P3] (Ac-Q[NMeCha]DLF-OH) | -6.0 (± 0.1) kcal/mol | > 1000 | – | – |
| CC(=O)N[C@@H](CCC(N)=O)C(=O)N[C@@H](CC1CCCCC1)C(=O)N[C@@H](CC(=O)O)C(=O)N[C@@H](CC(C)C)C(=O)N[C@H]1CCCC[C@@H]1C(=O)N[C@@H](CC(C)C)C(=O)O [P31] (Ac-Q[Cha]DL[ACHC(1S,2S)]L-OH) | -7.4 (± 0.2) kcal/mol | 4070 | 7400 | – |
| CC(C)C[C@H](NC(=O)[C@H](CC(=O)O)NC(=O)[C@H](CC1CCCCC1)NC(=O)[C@H](CCC(N)=O)NC(=O)/C=C/c1ccc(F)cc1)C(=O)N[C@@H](Cc1ccccc1)C(=O)O [P18] ({Cinnamoyl(4-F)}-Q[Cha]DLF-OH) | – | 144 | – | – |
| CC(C)C[C@H](NC(=O)[C@H](CC(=O)O)NC(=O)[C@H](CC1CCCCC1)NC(=O)[C@H](CCC(N)=O)NC(=O)CNCc1ccco1)C(=O)N[C@@H](Cc1ccccc1)C(=O)O [P9] (H-[NFurfurylGly]Q[Cha]DLF-OH) | -9.2 (± 0.1) kcal/mol | 171 | 48000 | – |
